Data on 9 compounds can be found in US7932281B2, “Amine-based compound and use thereof” (Kureha Corporation, priority 2004, dated 2011).

The test system of one data set is SD mice. Kind of data set: Acute toxicity, single transvenous administration (Test Example 3). The format is in vivo. To be noted: 6-week-old male SD mice, 2.5 mg/kg transvenously once in physiological saline. The protocol:
The aforementioned compound was examined for acute toxicity. Specifically, 6-week-old SD mice (male) were divided into several groups (2 to 3 mice in each group). Subsequently, each of the compounds of Examples was dissolved in a physiological saline solution, and the solution was transvenously administered to the mice (dose: 2.5 mg/kg) once. Then, the number of dead mice was counted.

Data set [1] relates to HIV-1IIIB infected MT-4 cells. Kind of data set: Anti-HIV activity, HIV-1IIIB infected MT-4 cells, MTT method (Test Example 1). As to conditions: Human immunodeficiency virus 1, MT4, 120 h, concentration required for inhibition of cell disorder due to HIV infection by 50%, MOI 0.01, 5 days. The data set is classed as cell-based. As for the experimental part: Immediately after infection, HIV-1IIIB infected MT-4 cells (3.0×10^4/well, MOI (Multiplicity of infection): 0.01) were added to a 96-well microtiter plate together with the test compounds having different concentrations. The cells were cultured in a carbon dioxide incubator at 37° C. for 5 days, and the number of living cells was measured in accordance with the MTT (tetrazolium) method ([…], et al., J. of Virol. Method, 20, 309-321 […]). The antiviral activity is represented by the concentration required for inhibition of cell disorder due to HIV infection by 50% (EC50: 50% Effective Concentration) (μM), and the results are shown in Table 2.
(In general: Tetrazolium dyes change colour on reduction, which living cells bring about.)

The next data set concerns the target T1, CXCR4 (Homo sapiens, UniProt P61073).
T1 construct: endogenous in cells; host or cells: MT-4 cells
Description: Inhibition of 125I-SDF-1α binding to receptors CXCR4 on MT-4 cells (Test Example 2). As to conditions: binding-inhibition % at 0.01 μM, 2 hours under ice-cooling, read-out: Inhibition rate (%). The protocol: MT-4 cells (5×10^6/0.2 ml/well) were cultured on a 24-well microtiter plate. After the cells were incubated for 24 hours at 37° C. in a carbon dioxide gas incubator, a culture medium was replaced with a buffer solution (0.1% BSA-containing RPMI-1640). Together with a ligand ^125I-SDF-1α (specific activity: 2,200 Ci/mmol; available from Daiichi Pure Chemicals Co., Ltd. (Tokyo)), test materials with various concentrations were subjected to a binding reaction for 2 hours under ice-cooling. […] Then, a rate of inhibition of the binding between radioactive ligands and receptors CXCR4 by a test material was calculated (a binding-inhibition % at 0.01 μM).

T1 sequence (P61073 whole entry): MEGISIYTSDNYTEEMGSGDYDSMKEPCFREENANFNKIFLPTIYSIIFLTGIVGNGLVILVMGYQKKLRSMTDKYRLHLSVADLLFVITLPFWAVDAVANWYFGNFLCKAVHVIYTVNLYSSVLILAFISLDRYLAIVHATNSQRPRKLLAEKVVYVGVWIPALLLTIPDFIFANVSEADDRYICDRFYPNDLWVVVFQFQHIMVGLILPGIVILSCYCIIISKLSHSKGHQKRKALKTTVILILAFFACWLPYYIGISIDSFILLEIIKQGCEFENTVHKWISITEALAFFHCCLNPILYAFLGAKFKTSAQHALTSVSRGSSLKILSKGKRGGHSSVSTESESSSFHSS

As a reminder, the EC50 is the concentration giving half of the maximal effect. Low readings indicate a more potent agent, high ones a less potent agent. One may read the inhibition as the percentage by which the read-out fell short of the control. As for `CCCN(CCC)CCCCN(C)C(=O)Nc1ccc(CN(Cc2ncc[nH]2)Cc2nccn2C)cc1` [Compound No. 26, 1-(4-dipropylamino-butyl)-3-(4-{[(1H-imidazol-2-ylmethyl)-(1-methyl-1H-imidazol-2-ylmethyl)-amino]-methyl}-phenyl)-1-methyl-urea], the Dead mice/test mice with SD mice is recorded as 0/3. In addition, the concentration giving a half-maximal response (EC50) in data set [1] was found to be 73 nM. In addition, the inhibition at 0.01 µM on CXCR4 was found to be 57.3%.

Consider `CCCN(CCC)CCCCN(C)C(=O)N(C)c1ccc(CN(Cc2ncc[nH]2)Cc2nccn2C)cc1` [Compound No. 27, 1-(4-dipropylamino-butyl)-3-(4-{[(1H-imidazol-2-ylmethyl)-(1-methyl-1H-imidazol-2-ylmethyl)-amino]-methyl}-phenyl)-1,3-dimethyl-urea], for which the Dead mice/test mice in the data set on SD mice is recorded as 0/3. The compound further came in with an EC50 in data set [1] of 230 nM. The inhibition at 0.01 µM on CXCR4 is 43.4%.

Take `CCCN(CCC)Cc1ccc(-c2nc3ccc(CN(Cc4ncc[nH]4)Cc4nccn4C)cc3n2C)cc1` [Compound No. 29, [4-(6-{[(1H-imidazol-2-ylmethyl)-(1-methyl-1H-imidazol-2-ylmethyl)-amino]-methyl}-1-methyl-1H-benzimidazol-2-yl)-benzyl]-dipropyl-amine]: in the data set on SD mice, the Dead mice/test mice is listed as 0/3. In data set [1], this compound had an EC50 of 61 nM. For the same compound, at CXCR4, the inhibition at 0.01 µM was 71.2%.

Regarding `CCCN(CCC)CCCCNC(=O)c1cn2cc(CN(Cc3ncc[nH]3)Cc3nccn3C)ccc2n1` [Compound No. 30], the Dead mice/test mice in the data set on SD mice is listed as 0/3. Further, the response in data set [1] was half-maximal at 92 nM (EC50). Further, the inhibition at 0.01 µM at CXCR4 came out at 46%.

Turning to `CCCN(CCC)CCCCN(Cc1ccc(CN(Cc2ncc[nH]2)Cc2nccn2C)cc1)CC(F)(F)F` [Compound No. 31, N-(4-{[(1H-imidazol-2-ylmethyl)-(1-methyl-1H-imidazol-2-ylmethyl)-amino]-methyl}-benzyl)-N′,N′-dipropyl-N-(2,2,2-trifluoro-ethyl)-butane-1,4-diamine], in the data set on SD mice, the Dead mice/test mice is reported as 0/3. In data set [1], a half-maximal effect (EC50) was put at 74 nM. The inhibition at 0.01 µM on CXCR4 was determined as 47.3%.

With `CCCN(CCC)CCCCN(CCC#N)Cc1ccc(CN(Cc2ncc[nH]2)Cc2nccn2C)cc1` [Compound No. 33, 3-[(4-dipropylamino-butyl)-(4-{[(1H-imidazol-2-ylmethyl)-(1-methyl-1H-imidazol-2-ylmethyl)-amino]-methyl}-benzyl)-amino]-propionitrile], in the data set on SD mice, the Dead mice/test mice is 0/3. Besides, in data set [1], the EC50 worked out at 3 nM. The inhibition at 0.01 µM at CXCR4 amounted to 85.2%.

With `CCCN(CCC)CCCCN(CCC(=O)OC)Cc1ccc(CN(Cc2ncc[nH]2)Cc2nccn2C)cc1` [Compound No. 34, 3-[(4-dipropylamino-butyl)-(4-{[(1H-imidazol-2-ylmethyl)-(1-methyl-1H-imidazol-2-ylmethyl)-amino]-methyl}-benzyl)-amino]-propionic acid methyl ester], in the data set on SD mice, the Dead mice/test mice is on record as 0/3. This compound returned an EC50 in data set [1] of 3 nM. Moreover, at CXCR4, the inhibition at 0.01 µM is 85.5%.

For `CCCN(CCC)CCCCNC(=S)Nc1ccc(CN(Cc2ncc[nH]2)Cc2nccn2C)cc1` [Compound No. 35, 1-(4-dipropylamino-butyl)-3-(4-{[(1H-imidazol-2-ylmethyl)-(1-methyl-1H-imidazol-2-ylmethyl)-amino]-methyl}-phenyl)-thiourea], the Dead mice/test mice in the data set with SD mice was 0/3. The compound also displayed an EC50 in data set [1] of 7 nM. Also, the inhibition at 0.01 µM at CXCR4 is 86.3%.

On to `CCCN(CCC)CCCc1cccc(-c2ccc(CN(Cc3ncc[nH]3)Cc3nccn3C)cc2)n1` [Compound No. 36, {3-[6-(4-{[(1H-imidazol-2-ylmethyl)-(1-methyl-1H-imidazol-2-ylmethyl)-amino]-methyl}-phenyl)-pyridin-2-yl]-propyl}-dipropyl-amine], for which the Dead mice/test mice in the data set with SD mice was 0/3. The compound also registered an EC50 in data set [1] of 656 nM. The inhibition at 0.01 µM on CXCR4 stood at 58%.
